≈ marks a conversion by molar mass, not a printed value. Calls of active or inactive are those of the source. No cut-off for these calls is given here. Residues, ends and D or L forms follow the SMILES beside them.
Legend:
Klebsiella pneumoniae [1] = test: Antimicrobial activity against Klebsiella pneumoniae ATCC 13883 assessed as growth inhibition measured after 8 hrs incubation by standard broth dilution assay; assay type: functional
Cell membrane [2] = test: Induction of cell membrane damage in methicillin-resistant Staphylococcus aureus ATCC 43300 assessed as increase in red fluorescence at MIC measured after 1 hr incubation by PI based assay; assay type: subcellular
Cell membrane [3] = test: Induction of cell membrane damage in Klebsiella pneumoniae ATCC 13883 assessed as increase in red fluorescence at MIC measured after 1 hr incubation by PI based confocal microscopy; assay type: subcellular
Staphylococcus aureus [4] = test: In vivo antibacterial activity against methicillin-resistant Staphylococcus aureus ATCC 43300 infected locally in full thickness skin wound mouse model assessed as reduction in bacterial load in skin wound at 1 mg/kg treated with absorbable gelatin sponge measured after 7 days; assay type: functional, organism-based; details: time 7.0 day
Staphylococcus aureus [5] = test: Antibiofilm activity in methicillin-resistant Staphylococcus aureus ATCC 43300 assessed as reduction in biofilm formation at 37.2 ug/ml measured after 24 hrs by crystal violet staining based assay relative to control; assay type: functional; parameters: scale not given: the % may be the effect or the level left; details: dose 37.2 µg/ml
Klebsiella pneumoniae [6] = test: In vivo antibacterial activity against Klebsiella pneumoniae ATCC 13883 induced bacterial pneumonia mouse model assessed as reduction in bacterial infection induced weight loss at 4 mg/kg, injected into trachea after 24 hrs of infection measured after 3 to 7 days; assay type: functional, organism-based
Staphylococcus aureus [7] = test: In vivo antibacterial activity against methicillin-resistant Staphylococcus aureus ATCC 43300 infected locally in full thickness skin wound mouse model assessed as reduced skin damage by promoting wound healing at 4 mg/kg treated with absorbable gelatin sponge measured on early healing stage; assay type: functional, organism-based; details: route id
[8] = Toxicity in mouse assessed as fasciculus necrosis at 40 mg/kg, sc by H and E staining based assay; assay type: organism-based; details: in vivo
Cell membrane [9] = test: Induction of cell membrane damage in methicillin-resistant Staphylococcus aureus ATCC 43300 assessed as increase in green fluorescence at MIC measured after 1 hr incubation by SYTO9 confocal microscopy; assay type: subcellular
Cell membrane [10] = test: Induction of cell membrane damage in methicillin-resistant Staphylococcus aureus ATCC 43300 assessed as significant plasma membrane rupture, […], and cytoplasmic leakage at MIC measured after 1 hr incubation by Transmission electron microscopy; assay type: subcellular
Cell membrane [11] = test: Binding affinity to Klebsiella pneumoniae ATCC 13883 cell membrane treated with FITC labelled peptides at MIC measured after 1.5 hr by CLSM imaging analysis; assay type: subcellular
Staphylococcus aureus [12] = test: In vivo antibacterial activity against methicillin-resistant Staphylococcus aureus ATCC 43300 infected locally in full thickness skin wound mouse model assessed as reduction in bacterial load in skin wound at 4 mg/kg treated with absorbable gelatin sponge measured after 3 days; assay type: functional, organism-based; details: time 3.0 day
Staphylococcus aureus [13] = test: In vivo antibacterial activity against methicillin-resistant Staphylococcus aureus ATCC 43300 infected locally in full thickness skin wound mouse model assessed as reduction in bacterial load in skin wound at 1 mg/kg treated with absorbable gelatin sponge measured after 3 days; assay type: functional, organism-based; details: time 3.0 day
Cell membrane [14] = test: Induction of cell membrane damage in Klebsiella pneumoniae ATCC 13883 assessed as corrugation, blebbing, breakage, and fragmentation at MIC measured after 1 hr incubation by Scanning electron microscopy; assay type: subcellular
Staphylococcus aureus [15] = test: Antimicrobial activity against methicillin-resistant Staphylococcus aureus ATCC 43300 assessed as growth inhibition measured after 8 hrs incubation by standard broth dilution assay; assay type: functional
Cell membrane [16] = test: Binding affinity to methicillin-resistant Staphylococcus aureus ATCC 43300 cell membrane treated with FITC labelled peptides at MIC measured after 1.5 hr by CLSM imaging analysis; assay type: subcellular
Pseudomonas aeruginosa = test: Antimicrobial activity against Pseudomonas aeruginosa ATCC 27853 assessed as growth inhibition measured after 8 hrs incubation by standard broth dilution assay; assay type: functional
Klebsiella pneumoniae [17] = test: In vivo antibacterial activity against Klebsiella pneumoniae ATCC 13883 induced bacterial pneumonia mouse model assessed as reduction in bacterial infection induced weight loss at 1 mg/kg, injected into trachea after 24 hrs of infection measured after 3 to 7 days; assay type: functional, organism-based
Cell membrane [18] = test: Induction of cell membrane damage in Klebsiella pneumoniae ATCC 13883 assessed as increase in green fluorescence at MIC measured after 1 hr incubation by SYTO9 confocal microscopy; assay type: subcellular
Klebsiella pneumoniae [19] = test: Antibiofilm activity in Klebsiella pneumoniae ATCC 13883 assessed as reduction in biofilm formation at 150 ug/ml measured after 24 hrs by crystal violet staining based assay relative to control; assay type: functional; parameters: scale not given: the % may be the effect or the level left; details: dose 150 µg/ml
Streptococcus pneumoniae = test: Antimicrobial activity against Streptococcus pneumoniae ATCC 49619 assessed as growth inhibition measured after 8 hrs incubation by standard broth dilution assay; assay type: functional
Staphylococcus aureus [20] = test: In vivo antibacterial activity against methicillin-resistant Staphylococcus aureus ATCC 43300 infected locally in full thickness skin wound mouse model assessed as reduction in bacterial load in skin wound at 4 mg/kg treated with absorbable gelatin sponge measured after 7 days; assay type: functional, organism-based; details: time 7.0 day
Cell membrane [21] = test: Induction of cell membrane damage in methicillin-resistant Staphylococcus aureus ATCC 43300 assessed as corrugation, blebbing, breakage, and fragmentation at MIC measured after 1 hr incubation by Scanning electron microscopy; assay type: subcellular
[22] = Toxicity in mouse skin assessed as abscesses and visual lesions at 40 mg/kg, sc by histological analysis; assay type: organism-based; details: in vivo
Cell membrane [23] = test: Induction of cell membrane damage in Klebsiella pneumoniae ATCC 13883 assessed as significant plasma membrane rupture, cytosolic membrane and outer membrane separation, and cytoplasmic leakage at MIC measured after 1 hr incubation by Transmission electron microscopy; assay type: subcellular
Staphylococcus aureus [24] = test: In vivo antibacterial activity against methicillin-resistant Staphylococcus aureus ATCC 43300 infected locally in full thickness skin wound mouse model assessed as clean and less exudate at 1 mg/kg treated with absorbable gelatin sponge measured on early healing stage; assay type: functional, organism-based; details: route id
[25] = Toxicity in mouse assessed as intramuscular injury at 40 mg/kg, sc by H and E staining based assay; assay type: organism-based; details: in vivo

**Q.** What does the source list for `CC(=O)N[C@@H](CC(C)C)C(=O)N[C@@H](CCCCN)C(=O)N[C@@H](CCCNC(=N)N)C(=O)N[C@H](C(=O)N[C@@H](Cc1c[nH]c2ccccc12)C(=O)N[C@@H](CCCCN)C(=O)N[C@@H](CCCNC(=N)N)C(=O)N[C@H](C(=O)N[C@@H](Cc1ccccc1)C(=O)N[C@@H](CCCCN)C(=O)N[C@@H](CC(C)C)C(=O)N[C@@H](CC(C)C)C(=O)N[C@@H](CCCCN)C(=O)N[C@@H](CCCNC(=N)N)C(=O)N[C@@H](Cc1ccc(O)cc1)C(=O)N[C@@H](Cc1c[nH]c2ccccc12)C(=O)N[C@@H](CCCNC(=N)N)C(=O)N[C@@H](CCC(N)=O)C(=O)N[C@@H](CC(C)C)C(=O)N[C@@H](CCCCN)C(=O)N[C@@H](CCCCN)C(=O)N1CCC[C@H]1C(=O)N[C@H](C(=O)N[C@@H](CCCNC(=N)N)C(N)=O)C(C)C)C(C)C)C(C)C` (Ac-LKRVWKRVFKLLKRYWRQLKKPVR-NH2)?
**A.** MIC (Klebsiella pneumoniae [1]): 38 µg/mL (≈ 11.6 µM); Activity (Cell membrane [2]): Active; Activity (Cell membrane [3]): Active; Activity (Staphylococcus aureus [4]): Active; Activity (Staphylococcus aureus [5]): 77.25%; Activity (Klebsiella pneumoniae [6]): Active; Activity (Staphylococcus aureus [7]): Active; Activity [8]: Toxic; Activity (Cell membrane [9]): Active; Activity (Cell membrane [10]): Active; Activity (Cell membrane [11]): Active; Activity (Staphylococcus aureus [12]): Active; Activity (Staphylococcus aureus [13]): Active; Activity (Cell membrane [14]): inactive; MIC (Staphylococcus aureus [15]): 9.7 µg/mL (≈ 2.97 µM); Activity (Cell membrane [16]): Active; MIC (Pseudomonas aeruginosa): 4.9 µg/mL (≈ 1.5 µM); Activity (Klebsiella pneumoniae [17]): Active; Activity (Cell membrane [18]): Active; Activity (Klebsiella pneumoniae [19]): 86.42%; MIC (Streptococcus pneumoniae): 4.7 µg/mL (≈ 1.44 µM); Activity (Staphylococcus aureus [20]): Active; Activity (Cell membrane [21]): inactive; Activity [22]: Toxic; Activity (Cell membrane [23]): Active; Activity (Staphylococcus aureus [24]): Active; Model Group Showed Yellowish Compared With The Wounds Treated With Compound; Activity [25]: Toxic

Reference: ChEMBL document CHEMBL6153110, “Peptide Double-Stapling and Arginine N-Glycosylation Triggered the Development of Therapeutic Antimicrobial Peptides Capable of Killing Drug-Resistant Bacteria in Mice” (J Med Chem, 2025)
